Entries after “also recorded” stand apart in the source; their conditions may differ.
Tests used:
[1] = tested on: cell differentiation; details: prior art; cited from earlier work
[2] = cited from earlier work; for calcemic activity as compared to 1α,25-dihydroxyvitamin D3: prior-art patents
[3] = target: T1, vitamin D receptors (Homo sapiens, UniProt P11473); details: prior-art patents; cited from earlier work
T1 sequence (P11473 1-427): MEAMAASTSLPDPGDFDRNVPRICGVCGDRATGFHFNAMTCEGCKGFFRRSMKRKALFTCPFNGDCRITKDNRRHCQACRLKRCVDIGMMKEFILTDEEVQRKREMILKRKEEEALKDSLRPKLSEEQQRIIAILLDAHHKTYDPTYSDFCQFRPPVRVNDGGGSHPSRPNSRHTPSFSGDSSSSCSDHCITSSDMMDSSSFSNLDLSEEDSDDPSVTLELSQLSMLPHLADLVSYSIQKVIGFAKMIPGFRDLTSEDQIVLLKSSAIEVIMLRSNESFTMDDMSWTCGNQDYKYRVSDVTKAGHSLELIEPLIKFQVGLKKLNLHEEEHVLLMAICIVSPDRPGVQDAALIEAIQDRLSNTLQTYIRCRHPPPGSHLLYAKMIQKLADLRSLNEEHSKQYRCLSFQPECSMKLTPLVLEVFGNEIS

[4] = Intestinal calcium transport (everted gut sac method); assay type: in vivo, Sprague-Dawley rats; details: rats, four consecutive ip doses; equimolar or 27 times the dose of 1α,25-dihydroxyvitamin D3; FIG. 3
Description: FIG. 3 is a bar graph comparing the intestinal calcium transport activity of NEL with that of 1,25(OH)2D3.
(§1) (D) Intestinal Calcium Transport and Bone Calcium Mobilization
(§2) Male, weanling Sprague-Dawley rats were placed on Diet 11 (0.47% Ca) diet+AEK for one week followed by Diet 11 (0.02% Ca)+AEK for 3 weeks. The rats were then switched to a diet containing 0.47% Ca for one week followed by two weeks on a diet containing 0.02% Ca. Dose administration began during the last week on 0.02% calcium diet. Four consecutive ip doses were given approximately 24 hours apart. Twenty-four hours after the last dose, blood was collected from the severed neck and the concentration of serum calcium determined as a measure of bone calcium mobilization. The first 10 cm of the intestine was also collected for intestinal calcium transport analysis using the everted gut sac method.

[5] = tested on: Human promyelocytic leukemia (HL60) cells; test: HL-60 differentiation (nitro blue tetrazolium reduction); assay type: cell-based; details: 4 days, NBT reduction, FIG. 4
Experimental: FIG. 4 is a graph comparing the percent HL-60 cell differentiation as a function of the concentration of NEL with that of 1,25(OH)2D3.
(B) HL-60 Differentiation
The study drugs were dissolved in ethanol and the concentrations determined using UV spectrophotometry. Serial dilutions were prepared so that a range of drug concentrations could be tested without changing the final concentration of ethanol (≦0.2%) present in the cell cultures.
Human promyelocytic leukemia (HL60) cells were grown in RPMI-1640 medium containing 10% fetal bovine serum. The cells were incubated at 37° C. in the presence of 5% CO2.
HL60 cells were plated at 1.2×10^5 cells/ml. Eighteen hours after plating, cells in duplicate were treated with drug. Four days later, the cells were harvested and a nitro blue tetrazolium reduction assay was performed (Collins et al., 1979; J. Exp. Med. 149:969-974). The percentage of differentiated cells was determined by counting a total of 200 cells and recording the number that contained intracellular black-blue formazan deposits. Verification of differentiation to monocytic cells was determined by measuring phagocytic activity (data not shown).

[6] = Bone calcium mobilization (serum calcium); assay type: in vivo, Sprague-Dawley rats; details: rats, four consecutive ip doses; equimolar or 27 times the dose of 1α,25-dihydroxyvitamin D3; FIG. 2
Description: FIG. 2 is a bar graph comparing the bone calcium mobilization activity of NEL with that of 1,25(OH)2D3.
as §1, §2

[7] = PTH suppression and hypercalcemia; assay type: in vivo, Sprague-Dawley rats; details: normal rats; expected
Experimental: (E) PTH Suppression and Hypercalcemia
Adult, female Sprague-Dawley rats are obtained from Harlan (Madison, Wis.).
Upon receipt, the animals are identified by individual tail marks. Animals may then be housed in suspended, stainless steel, wire-bottom cages. Each cage may contain one animal. The animal rooms are maintained at a temperature of 68 to 72° F. and a relative humidity of 25 to 75%. The holding rooms are set to provide 12 hours of light per day. Water and a purified rodent diet (Suda et al., Purified Rodent Diet-Diet 11) containing […] 0.3% phosphorus and fat soluble vitamins A, D, E and K are provided ad libitum
Animals are randomly assigned to treatment groups (5 animals/group). All doses are administered intraperitoneally in 100 microliters of propylene glycol. […]
Twenty-four hours after the final dose, blood is collected from the tail artery and the concentration of bioactive serum PTH is measured using the rat BioActive Intact PTH ELISA Kit from Immutopics, Inc. (San Clemente, Calif.).
Twenty-four hours after the final dose, approximately 1 ml of blood is collected from the tail artery of each experimental animal. […] The level of calcium is determined by diluting the serum into 0.1% lanthum chloride and measuring the absorbance on an atomic absorption spectrophotometer (Perkin Elmer Model 3110, Shelton, Conn.).

[8] = target: T2, full-length recombinant rat vitamin D receptor (Rattus norvegicus, UniProt P13053); test: Vitamin D receptor competitive binding with [3H]-1,25-(OH)2-D3; details: competition with [3H]-1,25-(OH)2-D3, recombinant rat receptor; FIG. 1
T2 construct: Full-length recombinant rat receptor was expressed in E. coli BL21(DE3) Codon Plus RIL cells; histidine tag (C); made in house; host or cells: E. coli BL21(DE3) Codon Plus RIL
T2 sequence (P13053 1-423): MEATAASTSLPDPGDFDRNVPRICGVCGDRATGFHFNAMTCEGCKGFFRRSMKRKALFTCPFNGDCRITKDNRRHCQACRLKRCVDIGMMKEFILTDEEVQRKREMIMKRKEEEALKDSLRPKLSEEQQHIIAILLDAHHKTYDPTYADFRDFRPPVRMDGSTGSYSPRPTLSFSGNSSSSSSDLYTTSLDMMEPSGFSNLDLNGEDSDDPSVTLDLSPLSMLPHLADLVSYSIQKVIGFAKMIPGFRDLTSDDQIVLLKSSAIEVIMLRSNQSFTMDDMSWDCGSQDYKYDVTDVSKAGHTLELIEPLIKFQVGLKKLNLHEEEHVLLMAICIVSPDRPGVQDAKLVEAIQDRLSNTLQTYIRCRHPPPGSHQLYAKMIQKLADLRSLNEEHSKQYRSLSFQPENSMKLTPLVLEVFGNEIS
Experimental: The first system was a nickel affinity resin that utilizes the C-terminal histidine tag on this protein. The protein that was eluted from this resin was further purified using ion exchange chromatography (S-Sepharose Fast Flow). Aliquots of the purified protein were quick frozen in liquid nitrogen and stored at −80° C. until use. For use in binding assays, the protein was diluted in TEDK50 (50 mM Tris, 1.5 mM EDTA, pH7.4, 5 mM DTT, 150 mM KCl) with 0.1% Chaps detergent. The receptor protein and ligand concentration was optimized such that no more than 20% of the added radiolabeled ligand was bound to the receptor.
The following day, 100 mcl of hydroxylapatite slurry (50%) was added to each tube and mixed at 10-minute intervals for 30 minutes. The hydroxylapaptite was collected by centrifugation and then washed three times with Tris-EDTA buffer (50 mM Tris, 1.5 mM EDTA, pH 7.4) containing 0.5% Titron X-100. After the final wash, the pellets were transferred to scintillation vials containing 4 ml of Biosafe II scintillation cocktail, mixed and placed in a scintillation counter. Total binding was determined from the tubes containing only radiolabeled ligand.

[9] = tested on: 24-hdyroxylase (24Ohase) gene promoter in ROS 17/2.8 (bone) cells; test: In vitro transcription assay (luciferase reporter); assay type: cell-based; details: Ros17/2.8 (bone) cells, 24-hydroxylase promoter-luciferase, 16 h; FIG. 5
Experimental: FIG. 5 is a graph comparing the in vitro transcription activity of NEL with that of 1,25(OH)2D3.
(C) In vitro Transcription Assay
Transcription activity was measured in ROS 17/2.8 (bone) cells that were stably transfected with a 24-hdyroxylase (24Ohase) gene promoter upstream of a luciferase reporter gene (Arbour et al., 1998). Cells were given a range of doses. Sixteen hours after dosing the cells were harvested and luciferase activities were measured using a luminometer. (RLU=relative luciferase units)

Which results are given for “1α-hydroxy-2-methylene-19-nor-(20S)-homopregnacalciferol”?
cell differentiation activity [1]: relatively high; calcemic activity as compared to 1α,25-dihydroxyvitamin D3 [2]: little if any; binding activity to vitamin D receptors [3]: relatively high

For “1α-hydroxy-2-methylene-19-nor-bishomopregnacalciferol”, which cell differentiation activity [1] is on record?
Its cell differentiation activity is “relatively high”.

What about the “calcemic activity as compared to 1α,25-dihydroxyvitamin D3” value [2] of the same molecule?
The value was “little if any”.

And the “binding activity to vitamin D receptors” value [3]?
The value was “relatively high”.

For `C[C@H](CCCC(C)(C)O)[C@H]1CC[C@H]2/C(=C/C=C3C[C@@H](O)C[C@H](O)C3)CCC[C@]12C` [1α,25-dihydroxy-19-nor-vitamin D3], which cell differentiation activity [1] is on record?
The cell differentiation activity was “high potency”.

And the calcium mobilizing activity ([2]; prior art)?
Its calcium mobilizing activity is “very low”.

With `C=C1[C@H](O)CC(=C/C=C2\CCC[C@]3(C)[C@@H](CC)CC[C@@H]23)C[C@H]1O` [1α-hydroxy-2-methylene-19-nor-pregnacalciferol] as the molecule, how does the cell differentiation activity [1] read?
Its cell differentiation activity is “relatively high”.

And the “calcemic activity as compared to 1α,25-dihydroxyvitamin D3” value [2]?
The value was “little if any”.

What about the “binding activity to vitamin D receptors” value [3] of the same molecule?
The value was “relatively high”.

With `C=C1[C@H](O)CC(=C/C=C2\CCC[C@]3(C)[C@@H]([C@H](C)CCCC(C)O)CC[C@@H]23)C[C@H]1O` (stereo partly drawn) [NEL, (20R, 25S)-2-Methylene-19,26-dinor-1α,25-dihydroxyvitamin D3] as the molecule, how does the “intestinal calcium transport activity compared with 1α,25-dihydroxyvitamin D3” value [4] read?
Its value is “limited calcemic activity; also recorded: very low intestinal calcium transport activity”.

What about the “inducing differentiation of HL-60 cells compared with 1α,25-dihydroxyvitamin D3” value [5] of the same molecule?
Its value is “equally active”.

And the “bone calcium mobilization (serum calcium) compared with 1α,25-dihydroxyvitamin D3” value [6]?
Its value is “limited calcemic activity; also recorded: very low ability to mobilize calcium from bone”.

And the “suppressing parathyroid hormone levels” value [7]?
Its value is “significant activity”.

And the “binding to the vitamin D receptor compared with 1α,25-dihydroxyvitamin D3” value [8]?
Its value is “somewhat more active; also recorded: relatively high binding”.

What about the “stimulating transcription of a reporter gene compared with 1α,25-dihydroxyvitamin D3” value [9] of the same molecule?
Its value is “equally active”.
